Experimental data published in patent US4673436A, “N, S containing corrosion inhibitors” (Exxon Chemical Patents Inc., priority 1986, dated 1987).

Columns and labels:
[1] = Corrosion wheel test, sweet-sour, all water system (3% NaCl brine, saturated CO2 + 100 ppm H2S), Table I; conditions: 160° F., 24 hours, 3% NaCl brine only
Experimental: (§1) Twelve quaternary ammonium salts according to the present invention, were tested under four standard sets of corrosion wheel test conditions. These include a sweet-sour test in an all water system under a range of concentrations from 4-256 ppm (TABLE I). Tests 2 and 3 were run under sweet (TABLE III), and sour conditions (TABLE II) at low (4 ppm) and high (256 ppm) concentrations only. A film persistency test (TABLE IV) was also run for completeness of the screening sequence; however, it was not expected that these water soluble compounds would perform well under these test conditions. Due to the low solubility of some C18 derivatives, 20% activity was adopted as a standard, with the C18 compounds being submitted at 10% activity and added at double concentration to the test fluids. […] Compounds are generally water and low brine soluble, hydrocarbon dispersible with some C18 derivatives being soluble in both fresh water and hydrocarbon.
Blank weight loss: 40 ± 0.9 mg
(§2) Fluids: 3% NaCl brine only
(§3) Saturated CO2 + 100 ppm H2 S
(§4) Duplicates w/ triplicate blanks

[2] = Corrosion wheel test, sour (3% NaCl brine, saturated N2 + 500 ppm H2S), Table II; conditions: 160° F., 24 hours, 3% NaCl brine only
Experimental: as §1
Blank weight loss: 55.8 ± 1.0 mg
as §2
Saturated N2 + 500 ppm H2 S
Duplicates and triplicate blanks

[3] = Corrosion wheel test, sweet (50-50 3% NaCl brine - Mentor, saturated CO2 only), Tables III, VI, VII; conditions: Table III, 160° F., 24 hours
Experimental: Twelve quaternary ammonium salts according to the present invention, were tested under four standard sets of corrosion wheel test conditions. These include a sweet-sour test in an all water system under a range of concentrations from 4-256 ppm (TABLE I). Tests 2 and 3 were run under sweet (TABLE III), and sour conditions (TABLE II) at low (4 ppm) and high (256 ppm) concentrations only.
(§5) Fluids: 50-50 3% NaCl brine - Mentor
as §4
Fluids: 50-50 - 3% NaCl brine - Mentor

[4] = Film persistent corrosion wheel test (50-50 3% NaCl brine - Mentor, saturated CO2 + 100 ppm H2S), Table IV; conditions: 160° F., film 1 hr, rinse 1 hr, run 24 hrs, single data points
Experimental: as §1
Blank weight loss: 58.3 ± 3.3 mg
Film 1 hr, Rinse 1 hr, Run 24 hrs.
as §5, §3
Single data points with triplicate blanks

[5] = Inhibitor solubility test, Table V; type: physicochemical; conditions: 20% active inhibitor added at 0.5% by volume; observed initially and after 24 hours
[6] = Corrosion wheel test, sweet (50-50 3% NaCl brine - Mentor, saturated CO2 only), Tables III, VI, VII; conditions: for % Protection @ 2 ppm / % Protection @ 4 ppm / % Protection @ 8 ppm / % Protection @ 32 ppm / % Protection @ 128 ppm: 160° F., 24 hours, saturated CO2 only; for corrosion protection / performance (in words): CO2 only corrosive environment
[7] = Table VII, thiol addition comparison

| SMILES | Solubility in 5% NaCl brine [5] | Solubility in aromatic naphtha [5] | Solubility in distilled water [5] | Solubility in kerosene [5] | % Protection @ 4 ppm [1] [%] | % Protection @ 8 ppm [1] [%] | % Protection @ 16 ppm [1] [%] | % Protection @ 256 ppm [1] [%] | % Protection @ 4 ppm [2] [%] | % Protection @ 256 ppm [2] [%] | % Protection @ 4 ppm [3] [%] | % Protection @ 256 ppm [3] [%] | % Protection @ 10,000 ppm [4] [%] | % Protection @ 2 ppm ([6]; Table VI confirmatory test) [%] | % Protection @ 4 ppm ([6]; Table VI confirmatory test) [%] | % Protection @ 8 ppm ([6]; Table VI confirmatory test) [%] | % Protection @ 32 ppm ([6]; Table VI confirmatory test) [%] | % Protection @ 128 ppm ([6]; Table VI confirmatory test) [%] | % Protection @ 2 ppm [6, 7] [%] | % Protection @ 8 ppm [6, 7] [%] | further results |
| --- | --- | --- | --- | --- | --- | --- | --- | --- | --- | --- | --- | --- | --- | --- | --- | --- | --- | --- | --- | --- | --- |
| CCCCCCCCCCCCS [C12 H25 SH, dodecane thiol, reference compound] |  |  |  |  |  |  |  |  |  |  |  |  |  |  |  |  |  |  | 4 | 7 | corrosion protection / performance (in words) ([6]; Table VII): neither did dodecene thiol alone give any corrosion protection; % Protection @ 128 ppm [6, 7]: 0% |
| CCCCCCCCCC[N+](C)(C)C [C10 H21 NMe3 I, reference compound] |  |  |  |  |  |  |  |  |  |  |  |  |  |  |  |  |  |  | 0 | 4 | corrosion protection / performance (in words) ([6]; Table VII): too short an alkyl chain length to function effectively as a corrosion inhibitor; % Protection @ 128 ppm [6, 7]: 3% |
| CCCCCCCCCCCCSCCC[N+](C)(C)C [Compound 11] | sol | disp | sol | disp | 21 | 27 | 35 | 79 | 15 | 80 | 60 | 84 | 20 |  |  |  |  |  |  |  |  |
| CCCCCCCCCCCC[N+](C)(C)CCCS [Compound 5] | sol | disp | sol | disp | 30 | 59 | 67 | 76 | 17 | 77 | 82 | 85 | 25 | 45 | 63 | 79 | 80 | 78 |  |  |  |
| CCCCCCCCCCCCSCC[N+](C)(C)C [Compound 8] | sol | disp | sol | disp | 7 | 13 | 23 | 81 | 3 | 78 | 14 | 76 | 19 | 9 | 19 | 18 | 62 | 82 |  |  |  |
| CCCCCCCCCCCC[N+](C)(C)CCS [Compound 2] | disp | disp | sol | disp | 35 | 44 | 67 | 77 | 23 | 79 | 56 | 81 | 64 | 13 | 42 | 69 | 82 | 80 | 23 | 72 | % Protection @ 128 ppm [6, 7]: 84% |

The next lines start with results.

| Solubility in 5% NaCl brine [5] | Solubility in aromatic naphtha [5] | Solubility in distilled water [5] | Solubility in kerosene [5] | SMILES | % Protection @ 4 ppm [1] [%] | % Protection @ 8 ppm [1] [%] | % Protection @ 16 ppm [1] [%] | % Protection @ 256 ppm [1] [%] | % Protection @ 4 ppm [2] [%] | % Protection @ 256 ppm [2] [%] | % Protection @ 4 ppm [3] [%] | % Protection @ 256 ppm [3] [%] | % Protection @ 10,000 ppm [4] [%] | % Protection @ 2 ppm ([6]; Table VI confirmatory test) [%] | % Protection @ 4 ppm ([6]; Table VI confirmatory test) [%] | % Protection @ 8 ppm ([6]; Table VI confirmatory test) [%] | % Protection @ 32 ppm ([6]; Table VI confirmatory test) [%] | % Protection @ 128 ppm ([6]; Table VI confirmatory test) [%] | % Protection @ 2 ppm [6, 7] [%] | % Protection @ 8 ppm [6, 7] [%] | further results |
| --- | --- | --- | --- | --- | --- | --- | --- | --- | --- | --- | --- | --- | --- | --- | --- | --- | --- | --- | --- | --- | --- |
| disp | disp | sol | disp | CCCCCCCC[N+](C)(C)CCCS [Compound 4] | 32 | 55 | 66 | 76 | 3 | 81 | 83 | 86 | 14 | 41 | 63 | 82 | 80 | 78 | 62 | 86 | % Protection @ 128 ppm [6, 7]: 85% |
| sol | disp | sol | disp | CCCCCCCCSCC[N+](C)(C)C [Compound 7] | 15 | 17 | 11 | 31 | 7 | 72 | 29 | 65 | 11 |  |  |  |  |  |  |  |  |
| sol | disp | sol | disp | CCCCCCCCSCCC[N+](C)(C)C [Compound 10] | 18 | 23 | 24 | 50 | 12 | 75 | 81 |  | 8 | 10 | 12 | 20 | 25 | 51 |  |  |  |
| insol | disp | disp | disp | CCCCCCCCCCCCCCCCCCSCC[N+](C)(C)C [Compound 9] | 26 | 33 | 52 | 66 | 6 | 75 | 38 | 84 | 17 |  |  |  |  |  |  |  |  |
| insol | sol | sol | disp | CCCCCCCCCCCCCCCCCCSCCC[N+](C)(C)C [Compound 12] | 49 | 56 | 57 | 69 | 14 | 81 | 50 | 83 | 14 |  |  |  |  |  |  |  |  |
| insol | disp | sol | disp | CCCCCCCCCCCCCCCCCC[N+](C)(C)CCCS [Compound 6] | 11 | 26 | 59 | 75 | 14 | 71 | 83 |  | 71 | 30 | 74 | 75 | 80 | 85 |  |  |  |
| disp | sol | sol | sol | CCCCCCCCCCCCCCCCCC[N+](C)(C)CCS [Compound 3] | 31 | 41 | 58 | 60 | 11 | 83 | 62 | 92 | 53 | 18 | 18 | 76 | 79 | 81 |  |  |  |
